Earlier results in US11052154B2, “Ras protein degradation inducing molecule and pharmaceutical composition” (Tokyo University of Science Foundation, priority 2016, dated 2021).

Experiments:
β2i = β2i (Homo sapiens, UniProt P40306); conditions: Table 18, 20S immunoproteasome inhibitor; cited from earlier work
β5i = β5i (Homo sapiens, UniProt P28062); conditions: Table 18, 20S immunoproteasome inhibitor; cited from earlier work

For CCCC[C@@H](C=O)NC(=O)[C@H](CC(C)C)NC(=O)OCc1ccccc1 [IPSI-001], the “Others: immunoproteasome subunit inhibited (β2i)” value (β2i) is listed as “β2i is inhibited”.

For COc1ccc(C[C@H](NC(=O)[C@H](C)NC(=O)CN2CCOCC2)C(=O)N[C@@H](Cc2ccccc2)C(=O)[C@@]2(C)CO2)cc1 [PR-957], the “Others: immunoproteasome subunit inhibited (β5i)” value (β5i) is given as “β5i is inhibited”.
